From publication PMC12867150, “A fungi-derived cyclic peptide enhances Th9-mediated antitumor immunity by targeting ZAP70 and SREBP1” (The Journal of Clinical Investigation, 2025)
Several values for one entry are separate records, joined by “and”; a condition that tells them apart may be missing. Equal entries are not always repeated.

Legend:
Format in all cases: cell-based, mouse
Th1 cells = assay: Th1 polarization, IFN-γ by flow cytometry (Figure 1F)
Protocol: Naive CD4^+ T cells were isolated from the spleens of C57BL/6J or CD45.1^+ OT-II mice using the MojoSort Mouse CD4 Naive T Cell Isolation Kit (BioLegend, catalog 480040), following the manufacturer’s protocol. Purified cells were cultured in RPMI-1640 medium supplemented with 10% FBS, 1% penicillin-streptomycin, and 0.1% β-mercaptoethanol (Gibco, catalog 21985023).
T cell polarization was initiated under plate-bound anti-CD3 (2 μg/mL, clone 17A2, BioXCell, catalog BE0002) and soluble anti-CD28 (1 μg/mL, clone 37.51, BioXCell, catalog BE0015-1) stimulation, with the addition of cytokines and neutralizing antibodies specific to each subset. For Th9 cells, these included IL-4 (10 ng/mL, Peprotech, catalog 400-04), TGF-β (1 ng/mL, EPOTO Biotech, catalog HF-2021), anti–IL-12 (5 μg/mL, clone C17.8, BioXCell, catalog BE0051), and anti–IFN-γ (10 μg/mL, clone XMG1.2, BioXCell, catalog BE0055); for Th1 cells, these included IL-12 (10 ng/mL, GenScript, catalog Z03211-50) and anti–IL-4 (5 μg/mL, clone 11B11, BioXCell, catalog BE0045); for Th2 cells, these included IL-4 (50 ng/mL), anti–IFN-γ (20 μg /mL), anti–IL-12 (5 μg/mL), Th17 cells: IL-6 (20 ng/mL, EPOTO Biotech, catalog MF-1006), TGF-β (1 ng/mL), IL-1β (10 ng/mL, Peprotech, catalog AF-211-11B), anti–IFN-γ (10 μg/mL), anti–IL-12 (5 μg/mL), and anti–IL-4 (5 μg/mL); and for Tregs, these included TGF-β (3 ng/mL). […]

[1] = tested on: mitochondria of Th9 cells; assay: Transmission electron microscopy of mitochondrial number and diameter (Figure 4J-K)
Protocol: Mitochondrial mass and membrane potential were assessed using MitoTracker™ Deep Red FM (Thermo Fisher Scientific, catalog M22426) and TMRM (tetramethylrhodamine methyl ester; Macklin, catalog T868125), respectively, following the manufacturers’ protocols. Cells were incubated with the respective dyes, washed, and subjected to flow cytometry or fluorescence microscopy analysis. For ultrastructural assessment, mitochondrial number and diameter were quantified from high-resolution transmission electron microscopy (TEM) images using ImageJ software.

MEK1/2 and ERK1/2 = assay: Immunoblot of total and phosphorylated MEK1/2 and ERK1/2 (Figure 5G); settings: result in words
Protocol: Detailed lysis conditions, SDS–PAGE and transfer procedures, primary/secondary antibodies (including clones and catalog numbers), molecular weight markers, ECL detection, and ImageJ (NIH) quantification are described in Supplemental Methods.
MH9A4, Biolegend, Cat. No. 507605, PE/Cy7, clone MH9A4, Biolegend, Cat. No. […]
clone Mab11, Biolegend, Cat. No. 502908), Perforin (APC, clone dG9, Biolegend, Cat.
Flow cytometric acquisition was performed using a BD Fortessa or Cytek Aurora cytometer. Data were analyzed with FlowJo software (v10.8.1 or newer). Fluorescence compensation, isotype-matched controls, and fluorescence-minus-one (FMO) controls were applied as appropriate for multicolor panel validation.
Cells were washed twice with PBS and lysed in 1 × lysis buffer (NCM, Cat. No.
WB3100) supplemented with a protease inhibitor cocktail (Solarbio, Cat. No. P1260).
Protein lysates were separated by SDS-polyacrylamide gel electrophoresis (SDS-PA G E ; YEASEN, Cat. No. 20325ES62) and transferred to PVDF membranes for […]
Membranes were probed with the following primary antibodies: ERK1/2 (clone […]
BioLegend, Cat. No. 369502), MEK1/2 (clone L38C12, Cell Signaling Technology, Cat.
No. 4694S), phospho -MEK1/2 (clone 41G9, Cell Signaling Technology, Cat. No. […]
(Proteintech, Cat. No. 10745 -1-AP), Total Akt (Cell Signaling Technolo gy, Cat. No. […]

anteiso-C15 Leu7 surfactin [EpA]
IFN-γ expression under Th1 polarization (Th1 cells; EpA 10 μM, individual replicates, n = 4): 80 and 84.2 and 74.8 and 80.3
effect on Th1 polarization (Th1 cells; result in words): did not affect
Number of mitochonodrion/cell ([1]; Figure 4J, individual cells): 12 and 23 and 11 and 16 and 10 and 21 and 9 and 17 and 6 and 7 and 24
number and diameter of mitochondria ([1]; result in words): increased number and diameter of mitochondria
MEK and ERK phosphorylation (MEK1/2 and ERK1/2): increased phosphorylation of MEK and ERK
